Measurements as given in US20240239861A1, “GLUCAGON-RECEPTOR SELECTIVE POLYPEPTIDES AND METHODS OF USE THEREOF” (i2O Therapeutics, Inc., priority 2016, published 2024).
pEC50: −log10 of the molar value. Where two headings read alike, the source gives them in different places. *1 amine or outer side, *2 acyl side, *3 side chain or, on linkers, in order; H or OH if unused. Where a SMILES comes first, the peptide text is derived from it. Side-chain parts run from the residue outwards. [ ]: non-standard residue; d: D form. The star is where a group is joined. γGlu = O=C(O)[C@H](CCC(=O)[*:2])N[*:1]; Palmitoyl = CCCCCCCCCCCCCCCC(=O)*; Aib = CC(C)(N)C(=O)O

How the values were obtained:
[1] = target: human GCGR (Homo sapiens, UniProt P47871); test: Peptide-receptor mediated cAMP accumulation (LANCE Ultra cAMP) in CHO-K1 cells transfected with human GCGR; format: cell-based; conditions: for EC50: read-out: GluR pEC50 (converted)
[2] = target: human GLP-1R (Homo sapiens, UniProt P43220); test: Peptide-receptor mediated cAMP accumulation (LANCE Ultra cAMP) in CHO-K1 cells transfected with human GLP-1R; format: cell-based; conditions: for EC50: Table 7, GLP-1R, read-out: GLP-1R pEC50 (converted)
[3] = Solubility in water or saline at room temperature, visual inspection; format: physicochemical; conditions: Solubility in water mg/ml
Excerpt: Samples were visually inspected for clarity of the sample, any appearance of turbidity or haziness.

[4] = in vivo; conditions: male, rat
Experimental: Peptides were formulated in sterile saline and administered as a 3-hour intravenous infusion to non-fasted male Wistar Han or Sprague-Dawley rats (n=3 per group) via jugular vein cannula at a final dose of 0.3 or 0.1 mg/kg. […] Plasma was prepared by centrifugation and stored at −80° C. until analysis.
Protein Precipitation: All 96-well plates were coated with a blocking agent to mitigate non-specific binding of peptides. Plasma samples (75 uL) were added to a 96-well plate containing 200 uL of 2:1 ethanol:acetonitrile containing 0.1% TFA and mixed well via aspiration. Plates were capped, vortex-mixed and centrifuged. Supernatants (215 uL) were transferred to a clean 96-well plate, evaporated to dryness under nitrogen flow and then reconstituted in 75 μL of 20% acetonitrile in water containing 0.10% formic acid.
Solid-Phase Extraction: Samples were diluted 3-fold with 5% NH4OH (aq) and loaded onto an Oasis MAX microElution plate (Waters Corp, Milford, MA) that had been pre-conditioned with 200 uL each of methanol and 5% NH4OH (aq). The plate was washed with 200 uL 5% NH4OH (aq), followed by 200 uL 20% acetonitrile in water. […] Samples were reconstituted in 80 uL 0.1% formic acid in water.
All calibration standards were prepared in control rat plasma containing K2EDTA and protease inhibitor cocktail. […] Samples were injected onto a 2.1×50 mm reverse phase C18 analytical column, typically a Waters ACQUITY UPLC™ HSS T3, 1.8 μm (Waters Corporation, Milford, MA) or similar. […] Typical flow rates were 600 L/min. The column temperature was held constant at 40 or 45° C. Peptides were quantified my monitoring one or more product ions produced from a multiply charged parent ion.

[5] = Clearance following intravenous infusion, acylated peptides (1-hour infusion, 0.033 mg/kg); conditions: rat, in vivo

Chain of human GLP-1R (P43220 24-463): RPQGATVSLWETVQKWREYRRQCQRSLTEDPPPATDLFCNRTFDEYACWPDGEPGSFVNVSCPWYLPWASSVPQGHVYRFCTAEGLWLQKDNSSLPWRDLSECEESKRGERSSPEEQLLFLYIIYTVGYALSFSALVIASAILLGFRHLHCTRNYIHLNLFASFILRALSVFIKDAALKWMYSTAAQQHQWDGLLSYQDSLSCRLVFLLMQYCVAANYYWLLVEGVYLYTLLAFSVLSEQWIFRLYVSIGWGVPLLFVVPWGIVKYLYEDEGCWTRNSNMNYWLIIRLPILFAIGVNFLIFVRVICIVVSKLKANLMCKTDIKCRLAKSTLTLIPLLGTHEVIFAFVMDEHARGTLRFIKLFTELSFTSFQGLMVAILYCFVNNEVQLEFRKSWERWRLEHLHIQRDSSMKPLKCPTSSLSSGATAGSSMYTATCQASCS
Chain of human GCGR (P47871 26-477): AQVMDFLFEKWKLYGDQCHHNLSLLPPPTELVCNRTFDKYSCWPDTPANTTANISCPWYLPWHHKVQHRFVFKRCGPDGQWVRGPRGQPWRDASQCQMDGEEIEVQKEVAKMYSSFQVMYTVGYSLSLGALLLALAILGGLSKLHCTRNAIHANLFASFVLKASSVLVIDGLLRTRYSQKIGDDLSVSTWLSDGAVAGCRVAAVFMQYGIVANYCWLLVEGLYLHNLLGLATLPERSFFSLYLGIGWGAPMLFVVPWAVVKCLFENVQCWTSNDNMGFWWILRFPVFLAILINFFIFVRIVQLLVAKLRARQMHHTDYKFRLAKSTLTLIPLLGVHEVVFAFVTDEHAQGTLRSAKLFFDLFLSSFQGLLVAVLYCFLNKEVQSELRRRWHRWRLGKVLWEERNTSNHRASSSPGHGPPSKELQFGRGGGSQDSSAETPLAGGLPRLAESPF

Row | Compound | pEC50 ([1]; Table 2B) | hGCGR pEC50 (cAMP mean (n = 3): 11 point curve starting at 1 nM) ([1]; Table 3) | pEC50 ([2]; hGLP1 pEC50 (cAMP mean (n = 3): 11 point curve starting at 1 nM, Table 3)) | pEC50 ([2]; hGLP1 pEC50 (cAMP) mean (n = 3): 11 point curve starting at 1 nM, Table 2B) | solubility [3] [mg/mL] | clearance [4] [mL/min/kg] | EC50 [1] [nM] | EC50 [2] [nM] | clearance [5] [mL/min/kg] | half-life [5] [h]
1 | CC(C)C[C@H](NC(=O)[C@H](Cc1ccc(O)cc1)NC(=O)[C@H](CCCCN)NC(=O)[C@H](CO)NC(=O)[C@H](Cc1ccc(O)cc1)NC(=O)[C@H](CC(=O)O)NC(=O)[C@H](CO)NC(=O)[C@@H](NC(=O)[C@H](Cc1ccccc1)NC(=O)[C@@H](NC(=O)CNC(=O)[C@H](Cc1c[nH]cn1)NC(=O)[C@H](CO)NC(=O)[C@@H](N)Cc1ccc(O)cc1)[C@@H](C)O)[C@@H](C)O)C(=O)N[C@@H](CC(=O)O)C(=O)NC(C)(C)C(=O)N[C@@H](C)C(=O)N[C@@H](CCCNC(=N)N)C(=O)N[C@@H](C)C(=O)N[C@@H](CCC(N)=O)C(=O)N[C@@H](CCC(=O)O)C(=O)N[C@@H](Cc1ccccc1)C(=O)N[C@H](C(=O)NC(C)(C)C(=O)N[C@@H](Cc1c[nH]c2ccccc12)C(=O)N[C@@H](CC(C)C)C(=O)N[C@@H](CCC(=O)O)C(=O)N[C@@H](CC(=O)O)C(=O)N[C@@H](CCC(=O)O)C(=O)N1CCC[C@H]1C(=O)N[C@@H](CO)C(=O)N[C@@H](CO)C(=O)NCC(=O)N[C@@H](C)C(=O)N1CCC[C@H]1C(=O)N1CCC[C@H]1C(=O)N1CCC[C@H]1C(=O)N[C@@H](CO)C(=O)O)C(C)C [Compound A103] (H-YSHGTFTSDYSKYLD[Aib]ARAQEFV[Aib]WLEDEPSSGAPPPS-OH; N-terminus assumed) | 11.90 | 11.9 | < 9.00 | < 9.00 | > 200 | 28.5 | – | – | – | –
2 | CCCCCCCCCCCCCCCC(=O)N[C@@H](CCC(=O)NCCCC[C@H](NC(=O)[C@H](CC(=O)O)NC(=O)[C@H](CC(C)C)NC(=O)[C@H](Cc1ccc(O)cc1)NC(=O)[C@H](CCCCN)NC(=O)[C@H](CO)NC(=O)[C@H](Cc1ccc(O)cc1)NC(=O)[C@H](CC(=O)O)NC(=O)[C@H](CO)NC(=O)[C@@H](NC(=O)[C@H](Cc1ccccc1)NC(=O)[C@@H](NC(=O)CNC(=O)[C@H](Cc1c[nH]cn1)NC(=O)[C@H](CO)NC(=O)[C@@H](N)Cc1ccc(O)cc1)[C@@H](C)O)[C@@H](C)O)C(=O)N[C@@H](CCCCN)C(=O)N[C@@H](Cc1ccc(O)cc1)C(=O)N[C@@H](C)C(=O)N[C@@H](CCC(N)=O)C(=O)N[C@@H](CCC(=O)O)C(=O)N[C@@H](Cc1ccccc1)C(=O)N[C@H](C(=O)NC(C)(C)C(=O)N[C@@H](Cc1c[nH]c2ccccc12)C(=O)N[C@@H](CC(C)C)C(=O)N[C@@H](CCC(=O)O)C(=O)N[C@@H](CC(=O)O)C(=O)N[C@@H](CCC(=O)O)C(=O)N1CCC[C@H]1C(=O)N[C@@H](CO)C(=O)N[C@@H](CO)C(=O)NCC(=O)N[C@@H](C)C(=O)N1CCC[C@H]1C(=O)N1CCC[C@H]1C(=O)N1CCC[C@H]1C(=O)N[C@@H](CO)C(=O)O)C(C)C)C(=O)O [Compound B3] | – | – | – | – | – | – | 0.00398 | > 1000 | 18.8 | 1.79
3 | CCCCCCCCCCCCCCCC(=O)N[C@@H](CCC(=O)NCCCC[C@H](NC(=O)[C@H](CO)NC(=O)[C@H](CO)NC(=O)[C@@H]1CCCN1C(=O)[C@H](CCC(=O)O)NC(=O)[C@H](CC(=O)O)NC(=O)[C@H](CCC(=O)O)NC(=O)[C@H](CC(C)C)NC(=O)[C@H](Cc1c[nH]c2ccccc12)NC(=O)C(C)(C)NC(=O)[C@@H](NC(=O)[C@H](Cc1ccccc1)NC(=O)[C@H](CCC(=O)O)NC(=O)[C@H](CCC(N)=O)NC(=O)[C@H](C)NC(=O)[C@H](CO)NC(=O)[C@H](CCCCN)NC(=O)C(C)(C)NC(=O)[C@H](CC(=O)O)NC(=O)[C@H](CC(C)C)NC(=O)[C@H](Cc1ccc(O)cc1)NC(=O)[C@H](CCCCN)NC(=O)[C@H](CO)NC(=O)[C@H](Cc1ccc(O)cc1)NC(=O)[C@H](CC(=O)O)NC(=O)[C@H](CO)NC(=O)[C@@H](NC(=O)[C@H](Cc1ccccc1)NC(=O)[C@@H](NC(=O)CNC(=O)[C@H](Cc1c[nH]cn1)NC(=O)[C@H](CO)NC(=O)[C@@H](N)Cc1ccc(O)cc1)[C@@H](C)O)[C@@H](C)O)C(C)C)C(=O)N[C@@H](C)C(=O)N1CCC[C@H]1C(=O)N1CCC[C@H]1C(=O)N1CCC[C@H]1C(=O)N[C@@H](CO)C(=O)O)C(=O)O [Compound B9] | – | – | – | – | – | – | 0.00794 | > 1000 | 0.594 | 4.98
4 | CC(C)C[C@H](NC(=O)[C@H](Cc1c[nH]c2ccccc12)NC(=O)[C@H](CCCCNC(=O)COCCOCCNC(=O)COCCOCCNC(=O)CC[C@H](NC(=O)CCCCCCCCCCCCCCCCC(=O)O)C(=O)O)NC(=O)[C@@H](NC(=O)[C@H](Cc1ccccc1)NC(=O)[C@H](CCC(=O)O)NC(=O)[C@H](CCC(N)=O)NC(=O)[C@H](C)NC(=O)[C@H](CO)NC(=O)[C@H](CCCCN)NC(=O)C(C)(C)NC(=O)[C@H](CC(=O)O)NC(=O)[C@H](CC(C)C)NC(=O)[C@H](Cc1ccc(O)cc1)NC(=O)[C@H](CCCCN)NC(=O)[C@H](CO)NC(=O)[C@H](Cc1ccc(O)cc1)NC(=O)[C@H](CC(=O)O)NC(=O)[C@H](CO)NC(=O)[C@@H](NC(=O)[C@H](Cc1ccccc1)NC(=O)[C@@H](NC(=O)CNC(=O)[C@H](Cc1c[nH]cn1)NC(=O)[C@H](CO)NC(=O)[C@@H](N)Cc1ccc(O)cc1)[C@@H](C)O)[C@@H](C)O)C(C)C)C(=O)N[C@@H](CCC(=O)O)C(=O)N[C@@H](CC(=O)O)C(=O)N[C@@H](CCC(=O)O)C(=O)N1CCC[C@H]1C(=O)N[C@@H](CO)C(=O)N[C@@H](CO)C(=O)NCC(=O)N[C@@H](C)C(=O)N1CCC[C@H]1C(=O)N1CCC[C@H]1C(=O)N1CCC[C@H]1C(=O)N[C@@H](CO)C(=O)O [Compound B14] | – | – | – | – | – | – | 0.501 | > 1000 | 2.65 | 13.9
5 | CC(C)C[C@H](NC(=O)[C@H](Cc1ccc(O)cc1)NC(=O)[C@H](CCCCN)NC(=O)[C@H](CO)NC(=O)[C@H](Cc1ccc(O)cc1)NC(=O)[C@H](CC(=O)O)NC(=O)[C@H](CO)NC(=O)[C@@H](NC(=O)[C@H](Cc1ccccc1)NC(=O)[C@@H](NC(=O)CNC(=O)[C@H](Cc1c[nH]cn1)NC(=O)[C@H](CO)NC(=O)[C@@H](N)Cc1ccc(O)cc1)[C@@H](C)O)[C@@H](C)O)C(=O)N[C@@H](CC(=O)O)C(=O)N[C@@H](CCCCNC(=O)COCCOCCNC(=O)COCCOCCNC(=O)CC[C@H](NC(=O)CCCCCCCCCCCCCCCCC(=O)O)C(=O)O)C(=O)N[C@@H](CCCCN)C(=O)N[C@@H](CO)C(=O)N[C@@H](C)C(=O)N[C@@H](CCC(N)=O)C(=O)N[C@@H](CCC(=O)O)C(=O)N[C@@H](Cc1ccccc1)C(=O)N[C@H](C(=O)NC(C)(C)C(=O)N[C@@H](Cc1c[nH]c2ccccc12)C(=O)N[C@@H](CC(C)C)C(=O)N[C@@H](CCC(=O)O)C(=O)N[C@@H](CC(=O)O)C(=O)N[C@@H](CCC(=O)O)C(=O)N1CCC[C@H]1C(=O)N[C@@H](CO)C(=O)N[C@@H](CO)C(=O)NCC(=O)N[C@@H](C)C(=O)N1CCC[C@H]1C(=O)N1CCC[C@H]1C(=O)N1CCC[C@H]1C(=O)N[C@@H](CO)C(=O)O)C(C)C [Compound B15] | – | – | – | – | – | – | 0.126 | > 1000 | 0.457 | 9.34
6 | CCCCCCCCCCCCCCCC(=O)N[C@@H](CCC(=O)NCCCC[C@H](NC(=O)[C@H](CO)NC(=O)[C@H](CCCCN)NC(=O)[C@@H]1CCCN1C(=O)[C@H](CCC(=O)O)NC(=O)[C@H](CC(=O)O)NC(=O)[C@H](CCC(=O)O)NC(=O)[C@H](CC(C)C)NC(=O)[C@H](Cc1c[nH]c2ccccc12)NC(=O)[C@H](CCCCN)NC(=O)[C@@H](NC(=O)[C@H](Cc1ccccc1)NC(=O)[C@H](CCC(=O)O)NC(=O)[C@H](CCC(N)=O)NC(=O)[C@H](C)NC(=O)[C@H](CCCNC(=N)N)NC(=O)[C@H](C)NC(=O)[C@H](C)NC(=O)[C@H](CC(=O)O)NC(=O)[C@H](CC(C)C)NC(=O)[C@H](Cc1ccc(O)cc1)NC(=O)[C@H](CCCCN)NC(=O)[C@H](CO)NC(=O)[C@H](Cc1ccc(O)cc1)NC(=O)[C@H](CC(=O)O)NC(=O)[C@H](CO)NC(=O)[C@@H](NC(=O)[C@H](Cc1ccccc1)NC(=O)[C@@H](NC(=O)CNC(=O)[C@H](CCC(N)=O)NC(=O)[C@H](CO)NC(=O)[C@@H](N)Cc1ccc(O)cc1)[C@@H](C)O)[C@@H](C)O)C(C)C)C(=O)N[C@@H](CO)C(=O)N1CCC[C@H]1C(=O)N1CCC[C@H]1C(=O)N1CCC[C@H]1C(=O)N[C@@H](CO)C(N)=O)C(=O)O [Compound B33] (H-YSQGTFTSDYSKYLDAARAQEFVKWLEDEPKSK([γGlu-Palmitoyl])SPPPS-NH2) | – | – | – | – | – | – | 0.0251 | > 1000 | 6.96 | 0.429
7 | CCCCCCCCCCCCCCCC(=O)N[C@@H](CCC(=O)NCCCC[C@H](NC(=O)[C@H](CO)NC(=O)[C@H](CO)NC(=O)[C@@H]1CCCN1C(=O)[C@H](CCC(=O)O)NC(=O)[C@H](CC(=O)O)NC(=O)[C@H](CCC(=O)O)NC(=O)[C@H](CC(C)C)NC(=O)[C@H](Cc1c[nH]c2ccccc12)NC(=O)[C@H](CCCCN)NC(=O)[C@@H](NC(=O)[C@H](Cc1ccccc1)NC(=O)[C@H](CCC(=O)O)NC(=O)[C@H](CCC(N)=O)NC(=O)[C@H](C)NC(=O)[C@H](CCCNC(=N)N)NC(=O)[C@H](C)NC(=O)[C@H](CO)NC(=O)[C@H](CC(=O)O)NC(=O)[C@H](CC(C)C)NC(=O)[C@H](Cc1ccc(O)cc1)NC(=O)[C@H](CCCCN)NC(=O)[C@H](CO)NC(=O)[C@H](Cc1ccc(O)cc1)NC(=O)[C@H](CC(=O)O)NC(=O)[C@H](CO)NC(=O)[C@@H](NC(=O)[C@H](Cc1ccccc1)NC(=O)[C@@H](NC(=O)CNC(=O)[C@H](Cc1c[nH]cn1)NC(=O)[C@H](CO)NC(=O)[C@@H](N)Cc1ccc(O)cc1)[C@@H](C)O)[C@@H](C)O)C(C)C)C(=O)N[C@@H](C)C(=O)N1CCC[C@H]1C(=O)N1CCC[C@H]1C(=O)N1CCC[C@H]1C(=O)N[C@@H](CO)C(N)=O)C(=O)O [Compound B41] (H-YSHGTFTSDYSKYLDSARAQEFVKWLEDEPSSK([γGlu-Palmitoyl])APPPS-NH2) | – | – | – | – | – | – | 0.0251 | > 1000 | 4.86 | 1.09
